The text below walks through data of ChEMBL document CHEMBL1201862, “PubChem BioAssay data set” (2004).

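How tested: cells in 96-well plates exposed to compound for 48 hours at five concentrations. GI50 marks 50% less growth.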 Calls of active or inactive are those of the source. Rule as the data show it: active = GI50 up to about 1.1 µM and inactive = higher.

What all share (assay): growth of human tumour cells (NCI), 48 h
Assay [1] deals with A498.
For assay [2], the system named is BT-549.
Assay [3] deals with CCRF-CEM.
The test system of assay [4] is COLO 205.
Assay [5] relates to HL-60.
For assay [6], the system named is KM12.
In assay [7] the test system is M14.
Assay [8] concerns MCF7.
The subject of assay [9] is MOLT-4.
Assay [10] concerns NCI-H460.
Assay [11] concerns NCI/ADR-RES.
For assay [12], the system named is OVCAR-4.
Assay [13] deals with OVCAR-8.
For assay [14], the system named is RXF 393.
The subject of assay [15] is SW-620.
Assay [16] relates to T47D.
In assay [17] the test system is TK-10.
Assay [18] relates to UO-31.
Assay [19] concerns SR.

Regarding `CC(O)c1cc2c(s1)C(=O)c1c(C(C)O)csc1C2=O` (stereo not given), the GI50 in [1] was 0.21 µM (active); in [2] it was 0.19 µM (active); in assay [3], 0.173 µM (active); in [4] it was 1.28 µM (inactive); in assay [5], 0.0113 µM (active); in assay [6], 0.249 µM (active). Further, the GI50 in [7] is 0.126 µM (active); in assay [8], 0.0573 µM (active); in assay [9], 0.181 µM (active); in assay [10] it was 0.0451 µM (active); in [11], 0.146 µM (active); in [12] it was 0.177 µM (active). Moreover, the GI50 in assay [13] is 0.22 µM (active); in assay [14], 0.187 µM (active); in [15] it was 0.118 µM (active); in assay [16], 0.167 µM (active); in [17] it was 0.544 µM (active); in assay [18] it was 0.316 µM (active).

Regarding `COc1cc2c(cc1OC)[C@H](C)N1CCc3cc(OC)c(OC)cc3[C@@H]1C2`, the GI50 in assay [1], in [2], in [3], in assay [4], in assay [5] and in assay [6] was > 100 µM (inactive) in each case. Besides, the GI50 in assay [8], in [9], in [10], in [11], in assay [12] and in [13] was > 100 µM (inactive) in each case. Further, the GI50 in assay [15], in assay [16], in [17] and in [18] was > 100 µM (inactive) throughout.

Regarding `O=C(O)c1ccccc1/C=N\N=C1NCCCCN1`, the GI50 in assay [1], in assay [2], in assay [3], in [4], in assay [6] and in assay [7] was > 100 µM (inactive) throughout. Also, the GI50 in assay [8], in [9], in assay [10], in [11], in assay [12] and in assay [13] was > 100 µM (inactive) in each case. Besides, the GI50 in assay [19], in [15], in [16], in assay [17] and in assay [18] was > 100 µM (inactive) each time.

As for `Cc1ccc(OCC2=NN3C(=O)/C(=C\c4ccc([N+](=O)[O-])o4)SC3N2)cc1` (stereo not given), the GI50 in assay [1] was 17.4 µM (inactive); in assay [2], 12.5 µM (inactive); in assay [3], 2.99 µM (inactive); in assay [4] it was 3.19 µM (inactive); in [5], 1.59 µM (inactive); in [6], 15.8 µM (inactive). Besides, the GI50 in [7] was 8.47 µM (inactive); in [9], 2.33 µM (inactive); in assay [10], 18.7 µM (inactive); in [11], 9.04 µM (inactive); in assay [12], 2.99 µM (inactive); in assay [13], 3.66 µM (inactive). For the same compound, the GI50 in [14] is 14.9 µM (inactive); in assay [19], 2.94 µM (inactive); in [15], 2.93 µM (inactive); in [16] it was 2.17 µM (inactive); in assay [17], 16.5 µM (inactive); in assay [18], 15.4 µM (inactive).

For `CN(C)c1ccc(/C=C/c2cc(-c3ccccc3)[n+](C)n2-c2ccccc2)cc1`, the GI50 in [1] was 0.774 µM (active); in assay [2], 0.0571 µM (active); in [3], 0.035 µM (active); in [4] it was 0.094 µM (active); in [5] it was 0.0218 µM (active); in assay [6], 0.0635 µM (active). In addition, the GI50 was 0.617 µM (active) in assay [7]; 0.157 µM (active) in assay [8]; 0.144 µM (active) in assay [9]; 0.122 µM (active) in [10]; 4.5 µM (inactive) in [11]; 6.41 µM (inactive) in assay [12]. The GI50 in [13] was 0.207 µM (active); in assay [14], 0.281 µM (active); in assay [19], 0.103 µM (active); in assay [15], 0.299 µM (active); in assay [17], 1.7 µM (inactive); in assay [18], 1.86 µM (inactive).

With `Cc1ccc(CC(Cc2ccccc2C)C(=O)O)c(C(=O)O)c1` (stereo not given), the GI50 in assay [1], in [2], in assay [3], in [4], in assay [5] and in [6] was > 100 µM (inactive) throughout. Also, the GI50 in assay [7], in assay [8], in [9], in assay [10], in assay [11] and in [12] was > 100 µM (inactive) in each case. In addition, the GI50 in assay [13], in assay [14], in assay [19], in [15], in [17] and in assay [18] was > 100 µM (inactive) in each case.

On to `O=[N+]([O-])c1sc2ccc(Cl)cc2c1Nc1ccc(Cl)cc1`, for which the GI50 in [1], in assay [2], in assay [3], in assay [4], in [5] and in assay [6] was > 100 µM (inactive) throughout. For the same compound, the GI50 in [7] was > 100 µM (inactive); in assay [8] it was > 100 µM (inactive); in assay [9], > 100 µM (inactive); in [10], > 100 µM (inactive); in assay [11], > 100 µM (inactive); in assay [12], 2.55 µM (inactive). The GI50 in assay [13], in [14], in assay [15], in assay [16], in [17] and in assay [18] was > 100 µM (inactive) each time.

For the compound `COc1ccc(NC(=S)N/N=C\c2ccc(NC(C)=O)cc2)cc1`, the GI50 in [2] is > 100 µM (inactive); in [3], > 100 µM (inactive); in [4], > 100 µM (inactive); in assay [5] it was 41.1 µM (inactive); in assay [6], > 100 µM (inactive); in [7], > 100 µM (inactive). Moreover, the GI50 in [9] is > 100 µM (inactive); in [10] it was > 100 µM (inactive); in assay [12], > 100 µM (inactive); in assay [19], 14.2 µM (inactive); in assay [15] it was > 100 µM (inactive); in assay [16], > 100 µM (inactive). Moreover, the GI50 in assay [17] and in assay [18] was > 100 µM (inactive) each time.

Regarding `CC(C)(C)c1ccc(-c2nnc(-c3cc(C#N)cc(-c4nnc(-c5ccc(C(C)(C)C)cc5)o4)c3)o2)cc1`, the GI50 in assay [1], in assay [2], in assay [3], in assay [4], in [6] and in assay [7] was > 100 µM (inactive) each time. Also, the GI50 is > 100 µM (inactive) in assay [9]; > 100 µM (inactive) in assay [10]; > 100 µM (inactive) in assay [11]; > 100 µM (inactive) in assay [12]; > 100 µM (inactive) in [13]; 0.0107 µM (active) in assay [14]. Besides, the GI50 in assay [15], in [16], in assay [17] and in [18] was > 100 µM (inactive) throughout.

In the case of `NC(=O)/N=C(\N)NC(=O)c1ccccc1`, the GI50 in assay [1], in [2], in assay [5], in [6], in [7] and in assay [9] was > 100 µM (inactive) in each case. Besides, the GI50 in assay [10], in [11], in [13], in assay [14], in [19] and in assay [15] was > 100 µM (inactive) throughout. Besides, the GI50 in [16], in assay [17] and in assay [18] was > 100 µM (inactive) throughout.

With `CCCCP(CCCC)(CCCC)=C(C(=O)OC)C(C(=O)OC)=C1SC(C(=O)OC)=C(C(=O)OC)S1`, the GI50 in assay [2] is 15.7 µM (inactive); in [4] it was 17 µM (inactive); in assay [7], 15.2 µM (inactive); in assay [8] it was 16.8 µM (inactive); in assay [9] it was 11.9 µM (inactive); in [10], 16 µM (inactive). In addition, the GI50 in [11] was > 10 µM (inactive); in assay [12], 16.2 µM (inactive); in assay [13] it was 20.7 µM (inactive); in assay [14], 10.3 µM (inactive); in assay [19] it was 34.8 µM (inactive); in assay [15] it was 23.4 µM (inactive). For the same compound, the GI50 in [16] is 13.5 µM (inactive); in assay [17] it was 38.6 µM (inactive); in [18], 20.3 µM (inactive).

As for `Cc1nc(Cl)c2sc(=S)n(-c3ccc(F)cc3)c2n1`, the GI50 in assay [1] is 1.58 µM (inactive); in [2], 2.59 µM (inactive); in [3] it was 2.72 µM (inactive); in assay [4], 4.47 µM (inactive); in assay [5], 7.16 µM (inactive); in assay [6], 12.7 µM (inactive). Further, the GI50 is 2.11 µM (inactive) in assay [7]; 2.84 µM (inactive) in [8]; 13.7 µM (inactive) in [10]; 6.56 µM (inactive) in assay [11]; 13.6 µM (inactive) in [12]; 14.6 µM (inactive) in [13]. The GI50 in assay [14] was 7.85 µM (inactive); in [19], 1.39 µM (inactive); in assay [15] it was 3.7 µM (inactive); in assay [17] it was 1.99 µM (inactive); in assay [18] it was 1.69 µM (inactive).
